Columns and labels:
Panc-1 spheroids [1] = experiment: CellTiter-Glo 3D cell viability assay; type: cell-based; details: Homo sapiens, PANC-1, 48 h, 3D spheroids, diameter up to 600 μm, 12.5–50 μM
Experimental: (§1) Spheroids were obtained as previously described ([Zanoni et al., 2016]). Briefly, a rotatory cell culture system RCCS (Synthecon Inc., Houston, TX, United States) was used. The rotary systems were placed inside a humidified 37°C, 5% CO2 incubator and all procedures were performed in sterile conditions. Single cell suspensions of about 1 × 10^6 cells/ml of Panc-1 were placed in the 50 mL rotating chamber at an initial speed of 12 rpm. Speed was increased as cells formed aggregates to avoid sedimentation. The culture medium was changed every 4 days and tumor spheroids with an equivalent diameter ranging from about 500–1300 μm were obtained in around 15 days. After formation, spheroids were transferred into a 96-well low-attachment culture plates (Corning Inc., Corning, NY, United States; one spheroid/well), containing 100 μL of fresh culture medium per well.
Cell viability of Panc-1 spheroids was measured using a 3D cell viability assay (Promega, Milan, Italy). Briefly, homogeneous spheroids were removed from the 96-well low-attachment culture plate and placed separately in single wells of a 96-well opaque culture plate (BD Falcon). CellTiter-Glo® 3D reagent was added to each well and the luminescence signal was read after 30 min with the GloMax® bioluminescent reader (Promega).
The analysis of morphological parameters were performed as previously described ([Piccinini et al., 2017]). […]

[2] = test system: Panc-1, Capan-1, and Capan-2; experiment: Real-Time qRT-PCR of ER stress/UPR marker genes, all cell lines; type: cell-based; details: exposure to 50 μM; 6, 12, and 24 h
Experimental: Total cellular RNA was extracted using TRIzol reagent (Life technologies) in accordance with manufacturer’s instruction and quantified using the Nanodrop MD-1000 spectrophotometer system. Reverse transcription reactions were performed in 20 μL of nuclease free water containing 400 ng of total RNA using iScript cDNA Synthesis kit (Bio-Rad Laboratories, Hercules, CA). Real-Time PCR was run using 7500 Fast Real-Time PCR system (Applied Biosystems) and TaqMan assays to detect the expression of SIGMAR1, TMEM97, GRP78/BiP, ATF4, and CHOP genes.
Reactions were carried out in triplicate at a final volume of 20 μL containing 40 ng of cDNA template, TaqMan universal PCR Master Mix (2X), and selected TaqMan assays (20X). Samples were maintained at 50°C for 2 min, then at 95°C for 10 min followed by 40 amplification cycles at 95°C for 15 s, and at 60°C for 30 s.
The amount of mRNA was normalized to the endogenous genes GAPDH and HPRT-1.

[3] = test system: proteasome activity of Capan-1; experiment: Proteasome activity assay; type: cell-based; details: Capan-1, 24 h, highest concentration used
Experimental: (§2) Cells were seeded in 6-well plates at density of 250 × 10^3 cells/well. Cells were treated with increasing concentration of RC-106 and after 24 h total protein extracts were obtained: cells were washed 2 times with PBS and lysed with 100 μL of lysis buffer (Hepes 5 mM pH 7.5, NaCl 150 mM, Glycerol 10%, Triton X100 1%, MgCl2 1.5 mM, EGTA 5 mM). Protein concentration of samples was quantified using Bradford method. Proteasome activity was quantified as described below. Proteasome solution was composed by 40 μg of proteins, 10 μL of 10X proteasome buffer (Hepes pH 7.5 250 mM, EDTA pH 8.0 5 mM, NP-40 0.5%, SDS 0.01%) and 10 μL of 10 mM proteasome substrate (N-Succinyl-Leu-Leu-Val-Tyr-7-Amido-4-Methylcoumarin, 7.6 mg/mL; Sigma-Aldrich, United States). 100 μL of proteasome solution was loaded in wells of a black 96-well plate. The plate was then incubated at 37°C for 2 h and the fluorescence was measured in a microplate reader (excitation 380 nm, emission 460 nm; BMG-Labtech, Germany).

[4] = test system: proteasome activity of Capan-2; experiment: Proteasome activity assay; type: cell-based; details: Capan-2, 24 h
Experimental: as §2

Capan-1 = experiment: Migration scratch wound healing assay; type: cell-based
Experimental: (§3) Cells were seeded in a 6-well plate and were incubated at 37°C until confluence of 90–100% was reached. Culture medium was then replaced by serum free medium. After 24 h, a scratch was made on cell monolayer using a plastic tip and wells were washed 2 times with PBS to remove detached cells and debris. Culture medium, with or without RC-106, was added to each well. Micrographs of the scratches were taken at 0 h, immediately after the scratch, and at 24, 48, and 72 h. Cell migration area was quantified using IMAGEJ software.

Capan-2 = experiment: Migration scratch wound healing assay; type: cell-based; details: Capan-2, 20 and 40 μM, after 48 and 72 h
Experimental: as §3

Panc-1 = experiment: Migration scratch wound healing assay; type: cell-based; details: Panc-1, 60 μM, all considered time points (24, 48, 72 h)
Experimental: as §3

Panc-1 spheroids [5] = experiment: Analysis of morphological parameters of 3D tumor spheroids; type: cell-based; details: 50 μM, 48 h
Experimental: as §1
The analysis of morphological parameters were performed as previously described ([Piccinini et al., 2017]). Briefly, an inverted Olympus IX51 microscope (Olympus Corporation, Tokyo, Japan), equipped with a Nikon Digital Sight DS-Vi1 camera (CCD vision sensor, square pixels of 4.4 μm side length, 1600 × 1200 pixel resolution, 8-bit gray level; Nikon Instruments, Spa. Florence, Italy) was used to take images and for morphological analyses. […]

IC50 (Panc-1 spheroids [1]): 39.6 µM
melting point: 221 to 222 °C
SMILES: C/C(=C\CN1CCC(Cc2ccccc2)CC1)c1ccc2ccccc2c1 [RC-106, (E)-4-benzyl-1-(3-(naphthalen-2-yl)but-2-en-1-yl)piperidine]
mRNA expression of ER markers GRP78/BiP, ATF4, and CHOP [2]: highly increased
concentration at which greatest proteasome inhibition is observed [3]: 100 µM
lowest concentration used to inhibit proteasome activity [4]: 20 µM
cell migration (Capan-1; Capan-1, 20 μM, after 48 h): significantly reduced
cell migration (Capan-1; Capan-1, 40 and 60 μM, after 24 h): reduced cell migration
cell migration (Capan-2): significatively reduceded
cell migration (Panc-1): significatively reduced
3D morphological parameters of spheroids (Panc-1 spheroids [5]): complete disaggregation of spheroid organization and cytoarchitecture

Reference: paper PMC6530361, “Anti-tumor Efficacy Assessment of the Sigma Receptor Pan Modulator RC-106. A Promising Therapeutic Tool for Pancreatic Cancer” (Frontiers in Pharmacology, 2019)
